Assay results published in publication PMC9967275, “Screening the Pathogen Box to Discover and Characterize New Cruzain and TbrCatL Inhibitors” (Pathogens, 2023).

What was measured:
cruzain = cruzain (Trypanosoma cruzi, UniProt P25779); experiment: biochemical; details: for Cruzain 0’ Inhibition / Cruzain 10’ Inhibition: sheet "Screening results"
Procedure: (§1) Allison Doak and Prof. Brian Shoichet (University of California San Francisco, San Francisco, CA, USA) and Prof. Conor Caffrey (University of California San Diego, San Diego, CA, USA) generously provided recombinant cruzain and TbrCatL, respectively. In vitro activity of proteases cruzain and TbrCatL was assayed as previously described. Briefly, enzyme activity was measured by monitoring the cleavage of the fluorogenic substrate […] (Z-FR-AMC) at 25 °C. Fluorescence was monitored at 340/440 nm (excitation/emission) over 5–7 min in a Synergy2 Biotek plate reader. […] DMSO and 1 μM E-64 were employed as negative and positive controls, respectively, in all assays. Two conditions were employed for both enzymes: 10′ pre-incubation of the enzyme in the presence of the compound (10′ inc) and no pre-incubation (0′). Reported values correspond to the mean and standard error of the mean (SEM) and all analyses were performed using GraphPad Prism 6.0.
(§2) For the initial screening, compounds were assayed at 5 μM. […] IC50 curves were obtained from a non-linear fit of at least seven distinct compound concentrations, in triplicate. Reported IC50 values are the mean and SEM of two independent measurements.

TbrCatL = target: T1, TbrCatL (Trypanosoma brucei rhodesiense, UniProt Q95PM0); experiment: TbrCatL enzymatic inhibition assay (cleavage of fluorogenic substrate Z-FR-AMC); type: biochemical; details: for TbrCatL 0’ Inhibition / TbrCatL 10’ Inhibition: sheet "Screening results"
T1 construct: Conor Caffrey (University of California San Diego)
Procedure: as §1, §2

[1] = 0’ (no pre-incubation), sheet Screening results
[2] = 10’ (pre-incubation), sheet Screening results
[3] = 0’ (pre-incubation time), Pathogen Box screening results
[4] = 10’ (pre-incubation time), Pathogen Box screening results
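Further: at 5 µM compound concentration.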

Sequence of cruzain (P25779 123-337 limits assumed): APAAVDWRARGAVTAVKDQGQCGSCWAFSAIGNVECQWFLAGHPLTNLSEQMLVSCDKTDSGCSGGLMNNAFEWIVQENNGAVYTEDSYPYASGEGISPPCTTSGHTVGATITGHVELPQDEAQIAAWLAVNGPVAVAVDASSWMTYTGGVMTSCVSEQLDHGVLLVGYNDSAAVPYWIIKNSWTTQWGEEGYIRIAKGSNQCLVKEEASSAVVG
T1 sequence (Q95PM0 entry or part of it): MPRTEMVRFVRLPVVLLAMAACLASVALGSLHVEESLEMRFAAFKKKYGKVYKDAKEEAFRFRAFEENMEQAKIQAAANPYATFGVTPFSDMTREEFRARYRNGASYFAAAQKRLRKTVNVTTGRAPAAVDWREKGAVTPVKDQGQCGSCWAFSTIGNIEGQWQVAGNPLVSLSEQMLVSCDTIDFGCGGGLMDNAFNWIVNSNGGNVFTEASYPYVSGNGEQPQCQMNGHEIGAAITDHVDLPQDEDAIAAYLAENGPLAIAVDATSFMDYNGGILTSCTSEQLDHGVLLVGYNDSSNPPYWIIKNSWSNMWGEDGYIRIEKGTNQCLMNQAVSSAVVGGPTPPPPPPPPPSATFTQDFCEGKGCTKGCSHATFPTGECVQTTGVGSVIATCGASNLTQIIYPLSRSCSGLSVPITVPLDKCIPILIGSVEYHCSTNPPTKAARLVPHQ

| Structure (SMILES) | Cruzain Inhibition 0’ (cruzain; [1]) [%] | Cruzain Inhibition 10’ (cruzain; [2]) [%] | TbrCatL Inhibition 0’ (TbrCatL; [1]) [%] | TbrCatL Inhibition 10’ (TbrCatL; [2]) [%] | Cruzain 0’ Inhibition (cruzain; 0’ (pre-incubation time)) [%] | Cruzain 10’ Inhibition (cruzain; 10’ (pre-incubation time)) [%] | TbrCatL 0’ Inhibition (TbrCatL; 0’ (pre-incubation time)) [%] | TbrCatL 10’ Inhibition (TbrCatL; 10’ (pre-incubation time)) [%] | also measured |
| --- | --- | --- | --- | --- | --- | --- | --- | --- | --- |
| O[C@@H](c1cc(C(F)(F)F)nc2c(C(F)(F)F)cccc12)[C@H]1CCCCN1 [MMV000016] | -5.4 | -9 | 2.4 | -2.6 | – | – | – | – | – |
| COc1cc(N[C@@H](C)CCCN)c2ncccc2c1 [MMV000023] | 2.8 | 6.4 | 9 | 5 | – | – | – | – | – |
| N=C(N)c1ccc(OCCCCCOc2ccc(C(=N)N)cc2)cc1 [MMV000062] | 19 | 13 | 3 | -3 | – | – | – | – | – |
| CCN(CC)CCCCCCNc1cc(OC)cc2c(C)ccnc12 [MMV000063] | 16 | 3 | 2.7 | 5.6 | – | – | – | – | – |
| O=S(=O)(c1ccc(Cl)cc1)N1CCN(C(=S)NCc2ccco2)CC1 [MMV000858] | 8 | 13 | 0.9 | 6 | – | – | – | – | – |
| COc1cccc2c(C)nc(N=C(N)N)nc12 [MMV000907] | 9.5 | 25 | 32 | 23 | – | – | – | – | – |
| CCCS(=O)(=O)N1CCC(CO)(Cc2ccccc2C(F)(F)F)CC1 [MMV001059] | – | – | – | – | 0.9 | -1.3 | -3.7 | -0.8 | – |
| COC(=O)C1=C(C)NC(C)=C(C(=O)OC(C)C)[C@H]1c1cccc2nonc12 [MMV001493] | 26 | 12 | 1.3 | -2.4 | – | – | – | – | – |
| C[C@H]1CS(=O)(=O)CCN1/N=C/c1ccc([N+](=O)[O-])o1 [MMV001499] | – | – | – | – | 7 | 7.5 | 5 | 11 | – |
| NCCC[C@@](N)(C(=O)O)C(F)F [MMV001625] | 20 | 7 | 2 | -1.9 | – | – | – | – | – |
| O=C(C1CCCCC1)N1CC(=O)N2CCc3ccccc3[C@@H]2C1 [MMV002529] | 22 | 18 | 5 | 5.7 | – | – | – | – | – |
| CCN(CC)C(=O)N1CCN(C)CC1 [MMV002816] | – | – | – | – | 2.5 | 1.9 | -0.5 | 0.1 | – |
| Oc1c(I)cc(I)c2cccnc12 [MMV002817] | 0.2 | -16 | 0.5 | -24 | – | – | – | – | – |
| COC(=O)Nc1nc2ccc(C(=O)c3ccccc3)cc2[nH]1 [MMV003152] | 3.3 | -1.4 | 4.7 | -5.3 | – | – | – | – | – |
| CN1CCCN(C(c2ccccc2)c2ccc(Cl)cc2)CC1 (centres unmarked) [MMV004168] | – | – | – | – | 3.6 | 6.6 | -5.4 | 1.8 | – |
| O=C1Nc2ccc(Br)cc2C12NCCc1c2[nH]c2ccccc12 (centres unmarked) [MMV006239] | 7.5 | 2.2 | 2.6 | 2.6 | – | – | – | – | – |
| Cc1ccc2[nH]c3c(NCCN(C)C)ncnc3c2c1 [MMV006372] | 27 | 21 | 10 | 14 | – | – | – | – | – |
| COc1cc2ncnc(NC3CCN(Cc4ccccc4)CC3)c2cc1OC [MMV006741] | 8 | 10 | 15 | 5.4 | – | – | – | – | – |
| Cc1cc(Cl)c(S(=O)(=O)N2CCCC2)cc1OCC(=O)NC1CCCCC1 [MMV006833] | – | – | – | – | 3 | 8 | 1.6 | 11 | – |
| CN(C)c1cc(NC(=O)Nc2ccccc2)c2ccccc2n1 [MMV006901] | 13 | 24 | 9 | 20 | – | – | – | – | – |
| Cc1cc(NC(=O)c2ccc(S(=O)(=O)N(Cc3ccccc3)C(C)C)cc2)no1 [MMV007133] | – | – | – | – | -3 | -4.5 | -7 | -11 | – |

| Structure (SMILES) | Cruzain Inhibition 0’ (cruzain; [1]) [%] | Cruzain Inhibition 10’ (cruzain; [2]) [%] | TbrCatL Inhibition 0’ (TbrCatL; [1]) [%] | TbrCatL Inhibition 10’ (TbrCatL; [2]) [%] | Cruzain 0’ Inhibition (cruzain; 0’ (pre-incubation time)) [%] | Cruzain 10’ Inhibition (cruzain; 10’ (pre-incubation time)) [%] | TbrCatL 0’ Inhibition (TbrCatL; 0’ (pre-incubation time)) [%] | TbrCatL 10’ Inhibition (TbrCatL; 10’ (pre-incubation time)) [%] | also measured |
| --- | --- | --- | --- | --- | --- | --- | --- | --- | --- |
| COc1cc(OC)cc(C(=O)NCC2Cc3cc(Cl)cc(-c4ccncc4)c3O2)c1 (centres unmarked) [MMV007471] | – | – | – | – | 1.1 | 6 | 0.4 | -2 | – |
| Cc1cc(C)n(-c2ccc(NC(=O)C3CCN(Cc4cnc(C)s4)CC3)cc2)n1 [MMV007625] | – | – | – | – | 5 | 1.6 | 1.5 | -1.8 | – |
| CCOc1ccc(-c2nc(NC(=O)CS(=O)(=O)c3ccccc3)sc2C)cc1 [MMV007638] | 7 | 10 | 0.6 | 9 | – | – | – | – | – |
| O=C(NC1CC1)c1ccc(CSCc2ccccc2Cl)o1 [MMV007803] | – | – | – | – | 0.3 | -1.7 | -6.5 | -0.2 | – |
| Nc1ccc(C(=O)Nc2ccc(-c3nc4ccccc4o3)cc2)cc1 [MMV007920] | – | – | – | – | 7 | 11 | 4.7 | -0.7 | – |
| COc1ccc(CN2CCOc3ccc(C(C)(O)CN(C)C)cc3C2)cc1C (centres unmarked) [MMV008439] | 0.3 | 0 | -5 | -3.4 | – | – | – | – | – |
| Cc1cc(C(=O)Nc2cnn(Cc3ccc(Cl)cc3Cl)c2)no1 [MMV009054] | -1.8 | -2 | -14 | -16 | – | – | – | – | – |
| O=C(C1CCN(c2nnnn2-c2ccccc2)CC1)N1CCc2ccccc2C1 [MMV009135] | – | – | – | – | 0.1 | 0.1 | -1.2 | 6 | – |
| COc1ccc(-c2cnc3ccc(NCc4ccc(S(N)(=O)=O)cc4)nn23)cn1 [MMV010545] | – | – | – | – | 0.8 | 3.6 | -3.2 | 7 | – |
| COc1cc(-c2cc(-c3ccc(S(C)(=O)=O)cc3)cnc2N)ccc1O [MMV010576] | – | – | – | – | 1.1 | 4 | 0.5 | 0.9 | – |
| c1csc(-c2cnc3sc(NCC4CCOCC4)nn23)c1 [MMV010764] | 14 | 16 | 14 | 19 | – | – | – | – | – |
| Cc1cc(Nc2ccc(C(F)(F)F)cc2)n2ccnc2n1 [MMV011229] | – | – | – | – | -0.9 | 1.4 | -1 | 6 | – |
| COc1ccc(CCN2CCC(NCc3cccc(N(C)C)c3)CC2)cc1 [MMV011511] | – | – | – | – | 5.7 | 3.6 | 0.4 | 9 | – |
| NCC(=O)N1CCn2c(nc(-c3ccccc3)c2Nc2ccc3c(c2)OCO3)C1 [MMV011691] | – | – | – | – | 1.8 | -3.4 | -1.7 | 1.3 | – |
| FC(F)(F)c1cnc(Sc2nnc(-c3ccncc3)o2)c(Cl)c1 [MMV011765] | – | – | – | – | 0.7 | -0.5 | -4 | -1.2 | – |
| Cc1ccc(NC(=O)c2nc[nH]c2C(=O)Nc2nc3ccccc3[nH]2)c(C)c1 [MMV011903] | -1.2 | -15 | -18 | -43 | – | – | – | – | – |
| Cc1nc2ccccn2c1C(=O)NCc1ccc(Cl)cc1 [MMV012074] | 25 | 12 | -0.2 | 5.6 | – | – | – | – | – |
| Cc1cc(Nc2ccncc2)n2nc(C)c(-c3ccccc3Cl)c2n1 [MMV016136] | 4.7 | 4.5 | 3.2 | 6 | – | – | – | – | – |
| Cc1ccc(-c2cc(C(=O)Nc3cccnc3)c3cc(Br)ccc3n2)cc1 [MMV016838] | – | – | – | – | – | – | – | – | Cruzain Inhibition 0’ (cruzain; [3]): 4.3%; Cruzain Inhibition 10’ (cruzain; [4]): 7.6%; TbrCatL Inhibition 0’ (TbrCatL; [3]): 1.7%; TbrCatL Inhibition 10’ (TbrCatL; [4]): 0.3% |
| Cc1cc(C)n2nc(C(=O)Nc3cc(C(F)(F)F)ccc3N3CCOCC3)nc2n1 [MMV019087] | 1.6 | 2.6 | 4.3 | 3 | – | – | – | – | – |
